Measurements taken from ChEMBL document CHEMBL3611970, “Synthesis and evaluation of isatin-β-thiosemicarbazones as novel agents against antibiotic-resistant Gram-positive bacterial species” (2015).

Legend:
Assay type in all cases: functional
[1] = system: Staphylococcus aureus; experiment: Antimicrobial activity against methicillin-resistant Staphylococcus aureus Chaoyang clinical isolate after 16 hrs by broth microdilution method
[2] = system: Staphylococcus aureus; experiment: Antimicrobial activity against Staphylococcus aureus ATCC 6538 after 16 hrs by broth microdilution method; details: ATCC 6538, 16 h
[3] = system: Bacillus spizizenii; experiment: Antimicrobial activity against Bacillus subtilis ATCC 6633 after 16 hrs by broth microdilution method; details: ATCC 6633, 16 h
[4] = system: Enterococcus faecalis; experiment: Antimicrobial activity against vancomycin-susceptible Enterococcus faecalis after 16 hrs by broth microdilution method
[5] = system: Enterococcus faecalis; experiment: Antimicrobial activity against Enterococcus faecalis VRE-309 after 16 hrs by broth microdilution method; details: VRE-309, 16 h
[6] = system: Pseudomonas aeruginosa; experiment: Antimicrobial activity against Pseudomonas aeruginosa PAO1 after 16 hrs by broth microdilution method; details: PAO1, 16 h
[7] = system: Klebsiella pneumoniae; experiment: Antimicrobial activity against Klebsiella pneumoniae KP-249 clinical isolate after 16 hrs by broth microdilution method; details: KP-249, 16 h
[8] = system: Staphylococcus aureus; experiment: Antimicrobial activity against methicillin-resistant Staphylococcus aureus 309-4 clinical isolate after 16 hrs by broth microdilution method; details: 309-4, 16 h
[9] = system: Staphylococcus aureus; experiment: Antimicrobial activity against methicillin-resistant Staphylococcus aureus 6281 clinical isolate after 16 hrs by broth microdilution method; details: Staphylococcus aureus, 6281, 16 h
[10] = system: Staphylococcus aureus; experiment: Antimicrobial activity against methicillin-resistant Staphylococcus aureus 309-8 clinical isolate after 16 hrs by broth microdilution method; details: 309-8, 16 h
[11] = system: Staphylococcus aureus; experiment: Antimicrobial activity against methicillin-resistant Staphylococcus aureus 6-42 clinical isolate after 16 hrs by broth microdilution method; details: 6-42, 16 h
[12] = system: Staphylococcus aureus; experiment: Antimicrobial activity against methicillin-resistant Staphylococcus aureus 8-21 clinical isolate after 16 hrs by broth microdilution method; details: 8-21, 16 h
[13] = system: Staphylococcus aureus; experiment: Antimicrobial activity against methicillin-resistant Staphylococcus aureus 309-3 clinical isolate after 16 hrs by broth microdilution method; details: 309-3, 16 h
[14] = system: Staphylococcus aureus; experiment: Antimicrobial activity against methicillin-resistant Staphylococcus aureus 309-1 clinical isolate after 16 hrs by broth microdilution method; details: 309-1, 16 h
[15] = system: Staphylococcus aureus; experiment: Antimicrobial activity against methicillin-resistant Staphylococcus aureus 309-7 clinical isolate after 16 hrs by broth microdilution method; details: 309-7, 16 h
[16] = system: Staphylococcus aureus; experiment: Antimicrobial activity against methicillin-resistant Staphylococcus aureus 8-24 clinical isolate after 16 hrs by broth microdilution method; details: 8-24, 16 h
[17] = system: Staphylococcus aureus; experiment: Antimicrobial activity against methicillin-resistant Staphylococcus aureus 309-6 clinical isolate after 16 hrs by broth microdilution method; details: 309-6, 16 h

Measured: MIC

COc1ccc(NC(=S)N/N=C2\C(=O)Nc3c(F)cccc32)cc1
6.25 µg/mL: [9]
1.56 µg/mL: [1] | [3] | [15]
> 100 µg/mL: [4] | [5] | [6] | [7]
3.12 µg/mL: all other assays above

O=C1Nc2c(Cl)cccc2/C1=N/NC(=S)Nc1cccc(F)c1
0.39 µg/mL: [1]
≤ 0.78 µg/mL: [3]
0.78 µg/mL: [8] | [11] | [15]
> 100 µg/mL: [6] | [7]
3.12 µg/mL: [4] | [9]
1.56 µg/mL: all other assays above

COc1ccc(NC(=S)N/N=C2\C(=O)Nc3c(Cl)cccc32)cc1
≤ 0.78 µg/mL: [3]
1.56 µg/mL: [1] | [8] | [11] | [15]
6.25 µg/mL: [2] | [9] | [17]
> 100 µg/mL: [4] | [5] | [6] | [7]
3.12 µg/mL: all other assays above

COc1ccccc1NC(=S)N/N=C1\C(=O)Nc2c(Br)cccc21
25 µg/mL: [1] | [3]
> 100 µg/mL: all other assays above

O=C1Nc2c(Br)cccc2/C1=N/NC(=S)Nc1cccc(F)c1
> 100 µg/mL: [6] | [7]
1.56 µg/mL: [2] | [5] | [9] | [17]
3.12 µg/mL: [4]
≤ 0.78 µg/mL: [3]
0.39 µg/mL: [1] | [15]
0.78 µg/mL: all other assays above

O=C1Nc2c(Br)cccc2/C1=N/NC(=S)Nc1cccc(Cl)c1
3.12 µg/mL: [4]
0.39 µg/mL: [1]
0.78 µg/mL: [8] | [11] | [15]
> 100 µg/mL: [6] | [7]
≤ 0.78 µg/mL: [3]
1.56 µg/mL: all other assays above

O=C1Nc2c(Br)cccc2/C1=N/NC(=S)Nc1ccc(Br)cc1
0.78 µg/mL: [8] | [11] | [15]
3.12 µg/mL: [2] | [4] | [9]
0.39 µg/mL: [1]
> 100 µg/mL: [6] | [7]
1.56 µg/mL: all other assays above

COc1ccc(NC(=S)N/N=C2\C(=O)Nc3c(Br)cccc32)cc1
> 100 µg/mL: [4] | [5] | [6] | [7]
0.78 µg/mL: [1] | [11] | [15]
6.25 µg/mL: [2] | [9] | [17]
3.12 µg/mL: [13]
≤ 0.78 µg/mL: [3]
1.56 µg/mL: all other assays above
